Results taken from patent EP3495372B1 (priority 2017, dated 2019).
Values after ≈ are worked out from the molar mass of the structure shown.

How the values were obtained:
[1] = test system: Pseudomonas aeruginosa ATCC 27853; assay: Antimicrobial activity; type: cell-based; conditions: ATCC27853, P. aeruginosa ATCC 27853
[2] = test system: peripheral human whole blood (PHWB) cells; assay: Cytotoxicity assay (MTT and LDH) on blood cells; conditions: 0.1 to 100 µM, 24 h, MTT and LDH assays
[3] = target: T1, acetylcholinesterase (AChE) (Homo sapiens, UniProt P22303); assay: AChE activity in cellular model of Alzheimer's disease; type: cell-based; conditions: with 20 µM Aβ1-42, 24 h
T1 construct: endogenous in cells
Method: Determination of AChE activity: the activity of AChE within the cellular Alzheimer Disease's model was measured by the Acetylcholinesterase Assay Kit (Colorimetric) from Abcam^(R) (Cambridge, MA, USA) according to the manufacturer's recommended protocol.
AChE activity was evaluated in differentiated SH-SY5Y cells treated with BLA, LA, MEM (25 and 50 µM) or media alone for 24 h.

[4] = test system: Candida albicans ATCC 90028; assay: Antimicrobial activity; type: cell-based; conditions: ATCC90028, C. albicans ATCC 90028
[5] = test system: SHSY-5Y human neuroblastoma cell line; assay: Antitumor activity, MTT and LDH assays; type: cell-based; conditions: dose-dependent
Method: (§1) Cytotechnol. 2015; 67:299-309.
Antitumor activity of BLA and MEM was tested on SHSY-5Y human neuroblastoma cell line using MTT and LDH assays. Cells were grown to near-confluency before treatment. Growth of the cell line was inhibited by both drug application in a dose-dependent manner.

[6] = test system: differentiated SH-SY5Y human neuroblastoma cells; assay: LDH assay, neuroprotective effects against Aβ1-42 cytotoxicity; type: cell-based; conditions: with 20 µM Aβ1-42, 24 h
Method: Cell cultures and differentiation: SH-SY5Y cell line were growth in DMEM:F12 (1:1) media including 10% FBS and 1% penicillin/streptomycin at 37 °C and 5% CO2 until cells reach confluence. Then, cells harvested via using trypsin/EDTA solution and transferred to 48 well plates. For differentiation, media were changed to supplemented media with 10 µg/mL retinoic acid and incubated for 5 days. Finally, media were changed into serum free media supplementing with both 10 µM retinoic acid and 25 ng/mL BDNF.
as §1
(§2) Control cells (n = 6) were cultured under normal conditions. 1% Triton X, ascorbic acid (10 µM) and hydrogen peroxide (H2O2, 25 µM) were used as positive controls for cell viability, TAC and TOS analysis, respectively.
The cultures without BLA, MEM, or LA were studied as negative control group. 1% Triton-X was added to the culture media to provide negative control group.

[7] = test system: Escherichia coli ATCC 25922; assay: Antimicrobial activity; type: cell-based; conditions: ATCC25922, E. coli ATCC 25922
[8] = test system: Staphylococcus aureus ATCC 25923; assay: Antimicrobial activity; type: cell-based; conditions: ATCC25923, S. aureus ATCC 25923
[9] = test system: differentiated SH-SY5Y human neuroblastoma cells; assay: MTT assay, neuroprotective effects against Aβ1-42 cytotoxicity; type: cell-based; conditions: 24 h, read-out: increase in the cell viability (MTT assay)
Method: Cell cultures and differentiation: SH-SY5Y cell line were growth in DMEM:F12 (1:1) media including 10% FBS and 1% penicillin/streptomycin at 37 °C and 5% CO2 until cells reach confluence. Then, cells harvested via using trypsin/EDTA solution and transferred to 48 well plates. For differentiation, media were changed to supplemented media with 10 µg/mL retinoic acid and incubated for 5 days. Finally, media were changed into serum free media supplementing with both 10 µM retinoic acid and 25 ng/mL BDNF. Differentiated cells were determined under invert microscope and the cells were used within 10 days (Encinas M, Iglesias M, Liu Y, Wang H, Muhaisen A, Ceña V, Gallego C, Comella JX. Sequential treatment of SH-SY5Y cells with retinoic acid and brain-derived neurotrophic factor gives rise to fully differentiated, neurotrophic factor-dependent, human neuron-like cells. J. Neurochem. 2002; 75:991-1003 e Cheung YT, Lau WKW, Yu MS, Lai CSW, Yeung SC, So KF, Chang RCC. Effects of all-trans-retinoic acid on human SH-SY5Y neuroblastoma as in vitro model in neurotoxicity research. Neurotoxicol. 2009; 30:127-135).
as §2
The cultures without BLA, MEM, or LA were studied as negative control group. 1% Triton-X was added to the culture media to provide negative control group. MTT reduction and LDH release observed after 24 h of Aβ1-42-exposure at 20 µM.

[10] = test system: Enterococcus faecalis ATCC 29212; assay: Antimicrobial activity; type: cell-based; conditions: ATCC29212, E. faecalis ATCC 29212

T1 sequence (P22303 32-614): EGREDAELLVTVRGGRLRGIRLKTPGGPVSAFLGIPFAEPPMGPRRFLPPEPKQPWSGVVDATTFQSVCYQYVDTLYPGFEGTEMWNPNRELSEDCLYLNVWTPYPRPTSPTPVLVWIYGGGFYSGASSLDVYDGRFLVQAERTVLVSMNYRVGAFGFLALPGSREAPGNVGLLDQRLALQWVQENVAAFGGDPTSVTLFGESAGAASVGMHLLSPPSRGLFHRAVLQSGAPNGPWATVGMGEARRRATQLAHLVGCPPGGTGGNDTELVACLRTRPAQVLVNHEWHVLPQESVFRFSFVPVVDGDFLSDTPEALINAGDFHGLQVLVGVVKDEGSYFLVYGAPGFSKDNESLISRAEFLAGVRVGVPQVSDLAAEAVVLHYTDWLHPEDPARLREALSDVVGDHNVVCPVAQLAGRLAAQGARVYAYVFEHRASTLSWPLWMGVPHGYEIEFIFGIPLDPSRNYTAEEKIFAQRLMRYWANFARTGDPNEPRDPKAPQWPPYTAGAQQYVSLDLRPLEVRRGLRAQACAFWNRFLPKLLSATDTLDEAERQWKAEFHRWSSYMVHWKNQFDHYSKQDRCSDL

CC1(C)C2CC3OB(CNC(=O)CCCC[C@H]4CCSS4)O[C@]3(C)C1C2 (stereo partly drawn) [BLA, 5-((S)-1,2-dithiolan-3-yl)-N-(((3aR)-3a,5,5-trimethylhexahydro-4,6-methanobenzo[d][1,3,2]dioxaborol-2-yl)methyl)pentanamide]
MIC [1]: 256 µg/mL (≈ 644 µM) | changes in cell viability [2]: did not show any significant changes in cell viability | reduced Aβ-induced AChE activity ([3]; 25 µM): 18.77% | reduced Aβ-induced AChE activity ([3]; 50 µM): 22.96% | MIC [4]: 128 µg/mL (≈ 322 µM) | antitumor effects (growth inhibition) [5]: moderate antitumor effects | increase in the cell viability (inhibited LDH release) ([6]; 25 µM): 62.91% | increase in the cell viability (inhibited LDH release) ([6]; 50 µM): 67.37% | increase in the cell viability (inhibited LDH release) ([6]; 100 µM): 70.65% | MIC [7]: 128 µg/mL (≈ 322 µM) | MIC [8]: 256 µg/mL (≈ 644 µM) | viability at 25 µM [9]: 25.1% | viability at 50 µM [9]: 29.9% | viability at 100 µM [9]: 32.9% | MIC [10]: 256 µg/mL (≈ 644 µM)

O=C(O)CCCCC1CCSS1 (stereo not drawn) [LA, 1,2-dithiolane-3-pentanoic acid]
increase in the cell viability (inhibited LDH release) ([6]; 25 µM): 53.05% | increase in the cell viability (inhibited LDH release) ([6]; 50 µM): 58.68% | increase in the cell viability (inhibited LDH release) ([6]; 100 µM): 59.86% | viability at 25 µM [9]: 14.8% | viability at 50 µM [9]: 19% | viability at 100 µM [9]: 20.7%
